From ChEMBL document CHEMBL1201862, “PubChem BioAssay data set” (2004)
Calls of active or inactive are those of the source.

Legend:
Vero = assay: host cell cytotoxicity of antiviral hits, dose response, cytotoxicity control for West Nile virus antiviral project, secondary assay (AID 1650); format: functional, Chlorocebus sabaeus; settings: Chlorocebus sabaeus, Vero
[1] = target: Induced myeloid leukemia cell differentiation protein Mcl-1 (Homo sapiens, UniProt Q07820); format: functional
[2] = growth suppression of beta-catenin-knockout colon cells, dose response, cell-based, HCT116, human colon tumor (AID 1045); format: functional;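 note: HCT116 colon tumor cells with beta catenin knocked out; cells exposed to compound for 60 hours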
[3] = growth suppression of PTEN-null colon cells, dose response, cell-based, HCT116 PTEN knockout (AID 1047); format: functional;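 note: HCT116 colon tumor cells with PTEN knocked out; cells exposed to compound for 60 hours before readout; potency for loss of cell viability measured by luminescence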
Kallikrein-7 = Kallikrein-7 (Homo sapiens, UniProt P49862); assay: Fluorescence Intensity-based biochemical primary high throughput dose response assay to identify activators of kallikrein-7 (K7) zymogen.
Chain of Kallikrein-7 (P49862 whole entry): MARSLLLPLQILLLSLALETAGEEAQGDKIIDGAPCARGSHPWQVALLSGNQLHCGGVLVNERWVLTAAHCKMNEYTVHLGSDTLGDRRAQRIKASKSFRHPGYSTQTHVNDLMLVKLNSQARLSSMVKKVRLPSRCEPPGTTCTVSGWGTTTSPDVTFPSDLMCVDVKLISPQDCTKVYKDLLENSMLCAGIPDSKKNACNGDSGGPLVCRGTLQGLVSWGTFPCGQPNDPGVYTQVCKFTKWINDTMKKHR

[4] = target: T1, Trace amine-associated receptor 1 (Homo sapiens, UniProt Q96RJ0); assay: Fluorescence-based cell-based high throughput dose response assay to identify agonists of the human trace amine associated receptor 1 (TAAR1).; format: functional
T1 sequence (Q96RJ0 whole entry): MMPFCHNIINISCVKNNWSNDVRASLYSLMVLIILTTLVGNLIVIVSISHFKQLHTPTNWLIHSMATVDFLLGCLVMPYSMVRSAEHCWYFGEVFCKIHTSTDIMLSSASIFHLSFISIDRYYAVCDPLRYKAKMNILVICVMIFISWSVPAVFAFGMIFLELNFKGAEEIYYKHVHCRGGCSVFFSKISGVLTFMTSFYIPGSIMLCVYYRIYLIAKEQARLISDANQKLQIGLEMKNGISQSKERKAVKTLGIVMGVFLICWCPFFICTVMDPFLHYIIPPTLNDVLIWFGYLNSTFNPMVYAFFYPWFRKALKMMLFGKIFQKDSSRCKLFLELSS

[5] = target: T1, Trace amine-associated receptor 1; assay: Counterscreen for agonists of the human trace amine associated receptor 1 (hTAAR1): Fluorescence-based cell-based high throughput dose response assay to identify hTAAR1 agonist that also desensitize TAAR1 receptor response.; format: functional
cells [6] = format: functional, cell-based
cells [7] = format: functional, cell-based; remark: listed apart in the source
[8] = target: T2, Corticotropin-releasing factor receptor 2/Corticotropin-releasing factor-binding protein (Homo sapiens, UniProt P24387+Q13324); assay: Dose Response confirmation of uHTS hits for small molecule antagonists of the CRF-binding protein and CRF-R2 receptor complex.; format: functional; settings: read-out: IC50_Mean
T2 sequence (Q13324 whole entry): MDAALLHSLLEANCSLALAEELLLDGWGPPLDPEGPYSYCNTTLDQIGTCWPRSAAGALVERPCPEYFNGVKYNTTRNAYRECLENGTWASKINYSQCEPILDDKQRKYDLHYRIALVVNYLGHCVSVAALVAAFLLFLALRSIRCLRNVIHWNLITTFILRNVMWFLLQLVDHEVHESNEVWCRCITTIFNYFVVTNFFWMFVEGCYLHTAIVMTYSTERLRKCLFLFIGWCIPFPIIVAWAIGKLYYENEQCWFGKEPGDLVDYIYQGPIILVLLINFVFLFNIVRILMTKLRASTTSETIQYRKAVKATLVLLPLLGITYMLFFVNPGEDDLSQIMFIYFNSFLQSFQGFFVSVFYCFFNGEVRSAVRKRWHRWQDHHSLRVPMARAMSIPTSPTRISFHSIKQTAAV
T2 sequence (P24387 whole entry): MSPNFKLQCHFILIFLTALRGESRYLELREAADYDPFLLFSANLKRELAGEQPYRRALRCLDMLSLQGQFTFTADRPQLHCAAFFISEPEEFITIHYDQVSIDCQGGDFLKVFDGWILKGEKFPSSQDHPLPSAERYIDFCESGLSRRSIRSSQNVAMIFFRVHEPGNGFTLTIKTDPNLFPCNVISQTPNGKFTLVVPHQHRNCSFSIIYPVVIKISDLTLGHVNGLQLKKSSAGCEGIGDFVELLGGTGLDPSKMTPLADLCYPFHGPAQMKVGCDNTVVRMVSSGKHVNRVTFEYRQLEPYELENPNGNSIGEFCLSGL

[9] = target: T2, Corticotropin-releasing factor receptor 2/Corticotropin-releasing factor-binding protein; assay: activators of CRF receptor 2 with binding protein – uHTS hits, confirmation (AID 602473); format: functional; settings: read-out: EC50_Mean
[10] = target: T3, Ubiquitin-conjugating enzyme E2 N (Homo sapiens, UniProt P61088); format: functional;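 note: Dose-response confirmation in a TR-FRET assay detecting UBC13-driven polyubiquitin chain formation, inhibition measured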
T3 sequence (P61088 whole entry): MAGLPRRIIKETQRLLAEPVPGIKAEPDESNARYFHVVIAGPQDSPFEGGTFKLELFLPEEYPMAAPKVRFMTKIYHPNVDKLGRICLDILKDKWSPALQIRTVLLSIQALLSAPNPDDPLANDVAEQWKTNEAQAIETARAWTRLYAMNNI

[11] = target: T4, High affinity choline transporter 1 (Homo sapiens, UniProt Q9GZV3); assay: CHT inhibitors, dose response, cell-based, 5-point CRC, membrane potential dye (AID 504840); format: functional
T4 sequence (Q9GZV3 whole entry): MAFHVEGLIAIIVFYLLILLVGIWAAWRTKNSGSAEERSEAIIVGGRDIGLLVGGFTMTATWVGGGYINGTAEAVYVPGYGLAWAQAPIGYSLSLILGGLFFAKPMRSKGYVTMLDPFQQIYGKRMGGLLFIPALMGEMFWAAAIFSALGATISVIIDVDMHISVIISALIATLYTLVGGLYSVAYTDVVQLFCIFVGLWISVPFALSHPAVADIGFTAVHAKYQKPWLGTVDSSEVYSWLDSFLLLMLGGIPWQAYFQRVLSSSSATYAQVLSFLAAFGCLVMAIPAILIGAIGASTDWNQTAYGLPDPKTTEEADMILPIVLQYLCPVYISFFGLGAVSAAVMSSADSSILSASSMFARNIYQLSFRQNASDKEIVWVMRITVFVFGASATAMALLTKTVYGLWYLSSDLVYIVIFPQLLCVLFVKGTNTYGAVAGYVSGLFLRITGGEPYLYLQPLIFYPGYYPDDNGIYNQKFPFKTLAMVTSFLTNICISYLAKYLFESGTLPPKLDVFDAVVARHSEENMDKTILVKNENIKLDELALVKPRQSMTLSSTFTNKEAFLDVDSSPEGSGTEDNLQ

[12] = intracellular Trypanosoma cruzi inhibitors in host cells – cell-based, plate reader, cherry-pick samples, set 3, dose response (AID 651818); format: functional;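 note: compounds incubated with infected cells for about four days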
[13] = non-specific cell cytotoxicity, dose response, cytotoxicity control for PAX8 inhibitor project, plate reader, dry powder samples (AID 743021); format: functional, cell-based
[14] = cytotoxicity in OVCAR8 ovarian cancer cells, dose response, PAX8 project, cell-based, plate reader, dry powder samples (AID 743197); format: functional; settings: OVCAR-8
Paired box protein Pax-8 = Paired box protein Pax-8 (Homo sapiens, UniProt Q06710); assay: inhibitors of PAX8-driven TPO luciferase reporter, dose response, RMG-I cells, cherry-pick (AID 687027); format: functional, cell-based;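 note: luciferase reporter driven by Pax8 target thyroperoxidase promoter measured by SteadyGlo luminescence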
Chain of Paired box protein Pax-8 (Q06710 whole entry): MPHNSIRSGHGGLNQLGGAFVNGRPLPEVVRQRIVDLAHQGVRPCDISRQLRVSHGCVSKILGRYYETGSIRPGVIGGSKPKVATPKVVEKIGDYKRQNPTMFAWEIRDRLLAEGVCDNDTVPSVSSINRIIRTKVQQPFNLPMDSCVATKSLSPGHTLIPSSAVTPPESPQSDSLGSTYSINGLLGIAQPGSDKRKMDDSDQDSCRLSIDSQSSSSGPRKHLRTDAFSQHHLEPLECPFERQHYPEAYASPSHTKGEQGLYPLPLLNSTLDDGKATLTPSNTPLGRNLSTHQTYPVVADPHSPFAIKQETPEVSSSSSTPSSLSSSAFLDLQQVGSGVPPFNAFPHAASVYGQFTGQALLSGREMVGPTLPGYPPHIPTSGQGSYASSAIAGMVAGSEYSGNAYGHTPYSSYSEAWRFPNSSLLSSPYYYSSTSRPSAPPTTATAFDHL

[15] = NIH:OVCAR-3 ovarian cancer cell cytotoxicity, dose response, PAX8 inhibitor project, plate reader, dry powder samples (AID 743044); format: functional, cell-based
[16] = target: T5, Histone-lysine N-methyltransferase NSD2 (Homo sapiens, UniProt O96028); format: biochemical
T5 sequence (O96028 whole entry): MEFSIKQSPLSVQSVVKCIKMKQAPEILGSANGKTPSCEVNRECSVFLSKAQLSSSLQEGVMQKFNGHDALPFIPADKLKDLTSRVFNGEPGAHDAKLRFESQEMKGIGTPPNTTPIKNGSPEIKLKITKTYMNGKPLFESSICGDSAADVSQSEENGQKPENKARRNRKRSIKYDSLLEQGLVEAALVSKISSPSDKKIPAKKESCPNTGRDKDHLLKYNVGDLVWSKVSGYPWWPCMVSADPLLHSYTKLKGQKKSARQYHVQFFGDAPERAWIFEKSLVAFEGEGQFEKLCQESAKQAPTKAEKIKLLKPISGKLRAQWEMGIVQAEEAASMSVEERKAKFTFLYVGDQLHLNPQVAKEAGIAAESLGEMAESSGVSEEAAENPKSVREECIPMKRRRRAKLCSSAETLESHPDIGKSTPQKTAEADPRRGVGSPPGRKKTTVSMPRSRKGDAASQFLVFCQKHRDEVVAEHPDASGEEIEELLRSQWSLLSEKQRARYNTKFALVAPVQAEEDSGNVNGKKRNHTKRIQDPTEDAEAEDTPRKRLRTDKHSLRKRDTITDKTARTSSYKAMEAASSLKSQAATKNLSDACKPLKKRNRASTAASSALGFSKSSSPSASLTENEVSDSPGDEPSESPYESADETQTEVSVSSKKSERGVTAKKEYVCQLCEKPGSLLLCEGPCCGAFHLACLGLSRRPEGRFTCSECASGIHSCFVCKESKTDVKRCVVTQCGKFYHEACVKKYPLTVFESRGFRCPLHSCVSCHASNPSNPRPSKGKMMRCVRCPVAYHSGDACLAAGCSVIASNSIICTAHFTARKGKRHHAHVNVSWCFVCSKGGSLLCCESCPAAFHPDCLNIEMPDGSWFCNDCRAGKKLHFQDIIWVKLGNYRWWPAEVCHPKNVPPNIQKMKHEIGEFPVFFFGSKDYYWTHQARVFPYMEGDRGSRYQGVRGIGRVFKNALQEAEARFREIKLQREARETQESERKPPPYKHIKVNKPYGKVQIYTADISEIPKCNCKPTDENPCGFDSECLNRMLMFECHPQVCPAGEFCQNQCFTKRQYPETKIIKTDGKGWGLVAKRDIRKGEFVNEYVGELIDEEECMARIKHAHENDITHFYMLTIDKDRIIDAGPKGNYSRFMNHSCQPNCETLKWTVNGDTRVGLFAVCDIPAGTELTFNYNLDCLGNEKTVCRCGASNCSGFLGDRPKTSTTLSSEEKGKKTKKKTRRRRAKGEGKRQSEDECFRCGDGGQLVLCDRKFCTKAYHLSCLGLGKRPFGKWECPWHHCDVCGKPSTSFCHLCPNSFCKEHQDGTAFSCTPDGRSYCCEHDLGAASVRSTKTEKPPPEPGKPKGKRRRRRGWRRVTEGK

Large T antigen = Large T antigen (Simian virus 40, UniProt P03070); format: functional, Betapolyomavirus macacae;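 note: Confirmatory-stage PubChem screen for compounds that inhibit SV40 T antigen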
Chain of Large T antigen (P03070 whole entry): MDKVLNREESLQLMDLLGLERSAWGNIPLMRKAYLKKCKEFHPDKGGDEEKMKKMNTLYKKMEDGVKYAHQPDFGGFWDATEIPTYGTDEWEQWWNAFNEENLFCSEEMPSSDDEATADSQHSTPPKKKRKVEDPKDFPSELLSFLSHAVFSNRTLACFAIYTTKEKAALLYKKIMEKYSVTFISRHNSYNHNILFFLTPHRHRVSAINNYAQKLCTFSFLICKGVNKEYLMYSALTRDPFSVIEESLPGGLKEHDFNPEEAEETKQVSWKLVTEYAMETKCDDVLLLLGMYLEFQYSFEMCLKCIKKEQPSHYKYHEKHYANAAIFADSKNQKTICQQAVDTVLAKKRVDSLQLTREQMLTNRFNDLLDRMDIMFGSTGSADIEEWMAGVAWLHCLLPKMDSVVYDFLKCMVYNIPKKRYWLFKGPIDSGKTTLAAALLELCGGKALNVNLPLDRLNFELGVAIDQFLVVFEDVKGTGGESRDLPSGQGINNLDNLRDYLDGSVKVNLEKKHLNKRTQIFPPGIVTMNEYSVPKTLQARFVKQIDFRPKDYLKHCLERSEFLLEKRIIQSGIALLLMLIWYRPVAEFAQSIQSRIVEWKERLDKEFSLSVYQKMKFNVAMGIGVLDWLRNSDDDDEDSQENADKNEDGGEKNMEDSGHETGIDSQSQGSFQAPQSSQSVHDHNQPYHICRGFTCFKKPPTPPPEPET

Chain of Induced myeloid leukemia cell differentiation protein Mcl-1 (Q07820 whole entry): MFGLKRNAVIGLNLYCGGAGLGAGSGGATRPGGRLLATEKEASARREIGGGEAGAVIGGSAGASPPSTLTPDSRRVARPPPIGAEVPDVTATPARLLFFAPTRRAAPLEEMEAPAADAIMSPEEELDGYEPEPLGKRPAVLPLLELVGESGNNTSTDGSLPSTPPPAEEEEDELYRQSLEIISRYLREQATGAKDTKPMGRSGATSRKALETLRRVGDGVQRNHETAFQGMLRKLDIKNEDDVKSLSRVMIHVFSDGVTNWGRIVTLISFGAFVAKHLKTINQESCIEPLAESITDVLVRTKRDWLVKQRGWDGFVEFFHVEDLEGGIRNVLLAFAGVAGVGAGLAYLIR

Cn1c(=O)[nH]c(=O)c2c1nc(N1CCCCC1)n2CCCSc1nc2ccccc2s1
CC50 (Vero): > 100 µM (active)

CCN=c1ccc(Br)cc(C(=O)/C=C/c2c(Cl)cccc2Cl)c1O
IC50 [1]: 2.32 µM (active) | EC50 [2]: 1.67 µM (active) | EC50 [3]: 1.92 µM (active) | CC50 (Vero): > 100 µM (active)

Cc1cc(NCCCCO)n2c(nc3ccccc32)c1C#N
EC50 (Kallikrein-7): > 69.5 µM (inactive)

CNCCc1ccccn1
EC50 [4]: 1.24 µM (active) | IC50 [5]: 6.02 µM (active) | IC50 (cells [6]): > 29.9 µM (inactive) | EC50 (cells [7]): > 29.9 µM (inactive)

CN1C(=O)NC(c2ccccc2)C2=C1CN(CCc1ccccc1)C2=O (stereo not drawn)
IC50 [8]: > 47.1 µM (inactive) | EC50 [4]: 1.03 µM (active) | IC50 [5]: 5.74 µM (active) | EC50 [9]: > 53 µM (inactive) | IC50 (cells [6]): > 29.9 µM (inactive) | EC50 (cells [7]): > 29.9 µM (inactive)

Cc1cc(C(=O)CN2C(=O)C(=O)N(C3CCCC3)C2=O)c(C)n1CCc1ccccc1
EC50 [4]: 1.89 µM (active) | IC50 [5]: 3.28 µM (active) | IC50 (cells [6]): > 29.9 µM (inactive) | EC50 (cells [7]): > 29.9 µM (inactive)

NC(=O)CCCn1c(C(=O)c2cc(Cl)c(N)c(Cl)c2)c2ccc([N+](=O)[O-])cc2[n+]1[O-]
IC50 [10]: > 20 µM (inactive) | IC50 [11]: 12.3 µM (active)

CN(C)c1cccc2c(S(=O)(=O)NC(=O)[C@H]3O[C@@H](n4cnc5c(N)ncnc54)[C@H](O)[C@@H]3O)cccc12
EC50 (Kallikrein-7): 8.16 µM (active)

COc1cccc(Nc2nc(C(N)COCc3ccccc3)cs2)n1 (stereo not drawn)
EC50 [4]: 2.55 µM (active) | IC50 [5]: 8.79 µM (active) | IC50 (cells [6]): 21.9 µM (inactive) | EC50 (cells [7]): 22.2 µM (inactive)

Cc1ccc(S(=O)(=O)Nc2ccc3c(c2)CC(=O)N([C@@H](C)CO)C[C@@H](C)[C@@H](CN(C)Cc2ccc(Oc4ccccc4)cc2)O3)cc1
AC50 [12]: 4.9 µM (active)

C[C@@H]1CN([C@@H](C)CO)C(=O)c2cccc(NC(=O)c3ccc(-c4nccs4)cc3)c2O[C@H]1CN(C)CC1CCCCC1
AC50 [12]: 4.06 µM (active)

C[C@H]1CN([C@@H](C)CO)C(=O)Cc2cc(NC(=O)C3CC3)ccc2O[C@@H]1CN(C)Cc1ccc(C(F)(F)F)cc1
AC50 [12]: 3.25 µM (active)

O=C(N/N=C/c1ccc(-c2cccc(Cl)c2)o1)c1ccccn1
AC50 [12]: 0.15 µM (active)

Cc1noc(C)c1S(=O)(=O)Nc1ccc2c(c1)C(=O)N([C@H](C)CO)C[C@H](C)[C@@H](CN(C)Cc1ccc(C(=O)Nc3ccccc3N)cc1)O2
AC50 [12]: 1.4 µM (active)

C[C@@H]1CCCCO[C@H](CN(C)Cc2ccc(Cl)c(Cl)c2)[C@@H](C)CN([C@H](C)CO)C(=O)c2cc(NC(=O)Nc3cccc4ccccc34)ccc2O1
AC50 [12]: 3.72 µM (active)

COc1ccc(CN(C)C[C@@H]2OCCCC[C@H](C)Oc3ccc(NS(=O)(=O)c4ccc(C)cc4)cc3C(=O)N([C@H](C)CO)C[C@H]2C)cc1
AC50 [13]: 64.6 µM (active) | AC50 [14]: 44.6 µM (active) | AC50 (Paired box protein Pax-8): 16.8 µM (active)

C[C@@H]1CCCCO[C@H](CN(C)Cc2ccccc2)[C@@H](C)CN([C@@H](C)CO)C(=O)c2cc(NC(=O)Nc3ccc(C(F)(F)F)cc3)ccc2O1
AC50 [15]: 44.5 µM (active) | AC50 [14]: 33.6 µM (active) | AC50 (Paired box protein Pax-8): 19 µM (active)

C[C@@H]1CN([C@H](C)CO)S(=O)(=O)c2ccc(C#Cc3ccncc3)cc2O[C@H]1CN(C)C(=O)C1CCCCC1
AC50 [15]: 17.1 µM (active) | AC50 (Paired box protein Pax-8): 3.13 µM (active)

CC(C)Nc1nc(-c2ccccc2CO)c2sccc2n1
EC50 (Kallikrein-7): > 69.6 µM (inactive)

O=c1c2ccccc2nc(COc2ccccc2)n1/N=C/c1ccc(O)c(O)c1
AC50 [16]: 8.78 µM (active) | IC50 (Large T antigen): 11.7 µM (active)

c1ccc(CCNc2ncnc3[nH]cnc23)cc1
EC50 [4]: 3.94 µM (active) | IC50 [5]: 8.92 µM (active) | IC50 (cells [6]): > 29.9 µM (inactive) | EC50 (cells [7]): > 29.9 µM (inactive)
